Results on 39 compounds are retold here after US12612412B2, “Antiviral heterocyclic compounds” (Enanta Pharmaceuticals, Inc., priority 2021, dated 2026).

pEC50: −log10 of the molar value. Read-outs that look alike come from different tables or passages of the source. Some results are limits rather than exact numbers.

Experiment [1] relates to genotype A, "Long" strain RSV. The experiment in a line: RSV-A assay (CPE protection in Hep-2 cells, ATPlite readout). It is filed as cell-based, Human respiratory syncytial virus (HRSV). The note with it: MOI 0.1, CPE protection. A digest of the protocol:
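Hep-2 cells (8,000/well) were treated with 2-fold serial compound dilutions in duplicate and infected with RSV at MOI 0.1. After 5 days, protection from cytopathic effect was measured as cell viability by ATPlite luminescence, and EC50 values were derived.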

The subject of experiment [2] is HMPV clinical isolate TN/1501/A1. The experiment in a line: HMPV antiviral assay Method-B (clinical isolate TN/1501/A1 in LLC-MK2 cells, ATP-Lite readout). In kind it is cell-based, Human metapneumovirus (HMPV). To be noted: hMPV WT1501 (clinical isolate TN/1501/A1), 6 days. A digest of the protocol: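 LLC-MK2 cells infected in suspension with TN/1501/A1 at MOI 0.014 in serum-free medium with 2 μg/mL TPCK-trypsin (final), incubated 6 days at 37° C. Compounds tested in duplicate, 10-point 3-fold dilutions from 10 μM. Cell health read by ATP-Lite luminescence, normalised to virus-only and cells-only controls; EC50 by four-parameter logistic fit.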

Setting [3] is: human respiratory syncytial virus, RSV-A Long strain, read-out: Human RSV-A (“Long”) EC50.
The mark [4] stands for this setting: human metapneumovirus, LLC-MK2, 144 h.
[5] abbreviates: human respiratory syncytial virus, genotype A “Long” strain RSV, read-out: Human RSV-A (“Long”).

On to `COc1cc(C(=O)NC[C@](O)(c2cc3c(c(-c4ccc(F)c(Cl)c4)n2)OC[C@@]3(C(N)=O)C(F)F)C2CC2)cc2cn(C3CC3)nc12` [Example 1025], for which the values for the pEC50 in experiment [1] (setting [3]) and in experiment [2] (setting [4]) were > 6.70 and > 6.30, respectively.
As to `COc1cc(C(=O)NC[C@](O)(c2cc3c(c(-c4cc(F)c(F)c(Cl)c4)n2)OC[C@]3(C)C(N)=O)C2CC2)cc2cn(C3(F)CC3)nc12` [Example 791], the pEC50 in experiment [1] (setting [5]) was > 6.70; in experiment [2] (setting [4]) it was > 6.30.
Regarding `COc1cc(C(=O)NC[C@](O)(c2cc3c(c(-c4ccc(F)cc4Cl)n2)OC[C@]3(C)C(N)=O)C(F)(F)F)cc2cn(C(F)F)nc12` [Example 529], the pEC50 in experiment [1] (setting [5]) was > 6.70; in experiment [2] (setting [4]), > 6.30.
Consider `COc1cc(C(=O)NC[C@](O)(c2cc3c(c(-c4ccc(F)cc4)n2)OC[C@@]3(C(N)=O)C(F)F)C2CC2)cc2cc(Cl)c(C)nc12` [Example 1031], for which the pEC50 in experiment [1] (setting [3]) is > 6.70; in experiment [2] (setting [4]), > 6.30.
`COc1cc(C(=O)NC[C@](O)(c2cc3c(c(-c4ccc(F)c(Cl)c4)n2)OC[C@]3(C)C(N)=O)C2CC2)cc2cc(Cl)c(C)nc12` [Example 633]: the pEC50 was > 6.70 in experiment [1] (setting [5]) and > 6.30 in experiment [2] (setting [4]).
Consider `COc1cc(C(=O)NC[C@](O)(c2cc3c(c(-c4cc(F)c(F)cc4F)n2)OC[C@]3(C)C(N)=O)C2CC2)cc2cn(C3CC3)nc12` [Example 1145], for which the pEC50 in experiment [1] (setting [3]) was > 6.70; in experiment [2] (setting [4]) it was > 6.30.
On the same counts, the results for `Cc1cnc2c(OC(F)F)cc(C(=O)NC[C@](O)(c3cc4c(c(-c5ccc(F)c(Cl)c5)n3)OC[C@@]4(C(N)=O)C(F)F)C(F)(F)F)cc2c1` [Example 1009] are > 6.70 and > 6.30.
On the same counts, the results for `COc1cc(C(=O)NC[C@](O)(c2cc3c(c(-c4cc(F)c(F)cc4F)n2)OC[C@]3(C)C(N)=O)C2CC2)cc2cc(Br)c(C)nc12` [Example 1150] are > 6.70 and > 6.30.
As to `COc1cc(C(=O)NC[C@](O)(c2cc3c(c(-c4ccc(F)c(F)c4Cl)n2)OC[C@]3(C)C(N)=O)C2CC2)cc2cn(C3CC3)nc12` [Example 533], the results for the pEC50 in experiment [1] (setting [5]) and in experiment [2] (setting [4]) were > 6.70 and > 6.30, respectively.
On the same counts, the results for `Cc1cnc2c(OC(F)(F)F)cc(C(=O)NC[C@](O)(c3cc4c(c(-c5ccc(F)cc5)n3)OC[C@]4(C)C(N)=O)C3CC3)cc2c1` [Example 502] are > 6.70 and > 6.30.
For `COc1cc(C(=O)NC[C@](O)(c2cc3c(c(-c4ccc5c(c4)OC(F)(F)O5)n2)OC[C@]3(C)C(N)=O)C2CC2)cc2c(F)n(C3CC3)nc12` [Example 650], the pEC50 in experiment [1] (setting [5]) was > 6.70; in experiment [2] (setting [4]), > 6.30.
On the same counts, the results for `COc1ccc(C(=O)NC[C@](O)(c2cc3c(c(-c4ccc(F)cc4)n2)OC[C@]3(C)C(N)=O)C(F)(F)F)n2ccnc12` [Example 699] are > 6.70 and < 6.30.
On the same counts, the results for `C[C@]1(C(N)=O)COc2c1cc([C@@](O)(CNC(=O)c1cc(Cl)c3nn(C4CC4)cc3c1)C1CC1)nc2-c1csc2c(F)cccc12` [Example 622] are > 6.70 and > 6.30.
On the same counts, the results for `COc1cc(C(=O)NC[C@](O)(c2cc3c(c(-c4cc(Cl)c(F)cc4F)n2)OC[C@]3(C)C(N)=O)C(F)(F)F)cc2cn(C(F)F)nc12` [Example 614] are > 6.70 and < 6.30.
For `COc1cc(C(=O)NC[C@](O)(c2cc3c(c(-c4cc(Cl)c(F)c(Cl)c4)n2)OC[C@]3(C)C(N)=O)C(F)(F)F)cc2cn(C3(F)CC3)nc12` [Example 671], the figures for the pEC50 in experiment [1] (setting [5]) and in experiment [2] (setting [4]) were > 6.70 and < 6.30, respectively.
On the same counts, the results for `COc1cc(C(=O)NC[C@](O)(c2cc3c(c(-c4ccc5c(c4)OC(F)(F)O5)n2)OC[C@]3(C)C(N)=O)C2(F)CC2)cc2cc(Cl)c(C)nc12` [Example 717] are > 6.70 and > 6.30.
Regarding `COc1cc(C(=O)NC[C@](O)(c2cc3c(c(-c4ccccc4Cl)n2)OC[C@]3(C)C(N)=O)C(F)(F)F)cc2cn(C3CC3)nc12` [Example 1248], the values for the pEC50 in experiment [1] (setting [3]) and in experiment [2] (setting [4]) were > 6.70 and > 6.30, respectively.
On the same counts, the results for `COc1cc(C(=O)NC[C@](O)(c2cc3c(c(-c4ccc5c(c4)OC(F)(F)O5)n2)OC[C@]3(C(N)=O)C(F)F)C(F)(F)F)cc2cn(C3CC3)nc12` [Example 1034] are < 6.70 and < 6.30.
On the same counts, the results for `COc1cc(C(=O)NC[C@](O)(c2cc3c(c(-c4ccc(F)c(F)c4Cl)n2)OC[C@]3(C)C(N)=O)C2CC2)cc2cc(Br)c(C)nc12` [Example 1184] are > 6.70 and > 6.30.
On the same counts, the results for `COc1cc(C(=O)NC[C@](O)(c2cc3c(c(-c4ccc(F)cc4)n2)OC[C@]3(C)C(N)=O)C(F)(F)F)cc2cc(Cl)c(Cl)nc12` [Example 1104] are < 6.70 and < 6.30.
Regarding `COc1cc(C(=O)NC[C@](O)(c2cc3c(c(-c4ccc(F)cc4Cl)n2)OC[C@]3(C)C(N)=O)C(F)(F)F)cc2cc(C(F)(F)F)cnc12` [Example 516], the pEC50 is > 6.70 in experiment [1] (setting [5]) and < 6.30 in experiment [2] (setting [4]).
Consider `COc1cc(C(=O)NC[C@](O)(c2cc3c(c(-c4cc(C(F)F)cs4)n2)OC[C@]3(C)C(N)=O)C(F)(F)F)cc2cn(C3CC3)nc12` [Example 947], for which the figures for the pEC50 in experiment [1] (setting [3]) and in experiment [2] (setting [4]) were > 6.70 and < 6.30, respectively.
As to `COc1cc(C(=O)NC[C@@](O)(c2cc3c(c(-c4ccc5c(c4)OC(F)(F)C(F)(F)O5)n2)OC[C@]3(C)C(N)=O)C(F)(F)F)cc2cn(C3CC3)nc12` [Example 1219], the pEC50 in experiment [1] (RSV-A Long strain, read-out: Human RSV-A (“Long”) EC50) was > 6.70; in experiment [2], < 6.30.
As for `C[C@]1(C(N)=O)COc2c1cc([C@@](O)(CNC(=O)c1cc(F)cc(NC(=O)NC3CC3)c1)C(F)(F)F)nc2-c1ccc(F)cc1` [Example 628], the pEC50 in experiment [1] (setting [5]) was < 6.70; in experiment [2] (setting [4]) it was < 6.30.
For `COc1cc(C(=O)NC[C@](O)(c2cc3c(c(-c4cccc(-c5ccccc5)c4)n2)OC[C@]3(C)C(N)=O)C(F)(F)F)cc2cn(C3CC3)nc12` [Example 1251], the pEC50 is < 6.70 in experiment [1] (setting [3]) and < 6.30 in experiment [2] (setting [4]).
Turning to `COc1cc(C(=O)NC[C@](O)(c2cc3c(c(-c4cc(Cl)c(F)cc4F)n2)OC[C@]3(C)C(N)=O)C2(F)CC2)cc2cc(Br)cnc12` [Example 767], the pEC50 in experiment [1] (setting [5]) was > 6.70; in experiment [2] (setting [4]) it was > 6.30.
On the same counts, the results for `COc1cc(C(=O)NC[C@](O)(c2cc3c(c(-c4ccc5c(c4)OC(F)(F)O5)n2)OC[C@]3(C)C(N)=O)C(F)(F)F)cn2cc(C3CC3)nc12` [Example 639] are > 6.70 and > 6.30.
On the same counts, the results for `Cc1cnc2c(OC(F)(F)F)cc(C(=O)NC[C@](O)(c3cc4c(c(-c5ccc(F)c(F)c5F)n3)OC[C@]4(C)C(N)=O)C(F)(F)F)cc2c1` [Example 515] are > 6.70 and > 6.30.
For `COc1cc(C(=O)NC[C@](O)(c2nc(-c3cc(Cl)c(F)cc3F)c3c(c2Cl)[C@@](C)(C(N)=O)CO3)C2CC2)cc2cn(C3CC3)nc12` [Example 1081], the pEC50 was > 6.70 in experiment [1] (setting [3]) and > 6.30 in experiment [2] (setting [4]).
Take `Cc1cnc2c(OC(F)(F)F)cc(C(=O)NC[C@](O)(c3cc4c(c(-c5ccc(F)c(Cl)c5)n3)OC[C@]4(C)C(N)=O)C3CC3)cc2c1` [Example 503]: the pEC50 in experiment [1] (setting [5]) was > 6.70; in experiment [2] (setting [4]), > 6.30.
On the same counts, the results for `COc1cc(C(=O)NC[C@](O)(c2cc3c(c(-c4ccc(F)cc4)n2)OC[C@]3(C)C(N)=O)C2(F)CC2)cc2cn(C(F)F)nc12` [Example 711] are > 6.70 and > 6.30.
For `COc1cc(C(=O)NC[C@](O)(c2cc3c(c(-c4ccc5c(c4)OC(F)(F)O5)n2)OC[C@]3(C)C(N)=O)C2(F)CC2)cc2cn(C3(F)CC3)nc12` [Example 725], the pEC50 in experiment [1] (setting [5]) is > 6.70; in experiment [2] (setting [4]), > 6.30.
On the same counts, the results for `COc1cc(C(=O)NC[C@](O)(c2cc3c(c(-c4ccc(F)c(F)c4F)n2)OC[C@]3(C)C(N)=O)C(F)(F)F)cc2cc(C3CC3)nn12` [Example 507] are > 6.70 and > 6.30.
On the same counts, the results for `Cc1cnc2c(OC(F)F)cc(C(=O)NC[C@](O)(c3cc4c(c(-c5ccc(F)c(F)c5Cl)n3)OC[C@]4(C)C(N)=O)C3(F)CC3)cc2c1` [Example 746] are > 6.70 and > 6.30.
For the compound `Cc1cnc2c(OC(F)F)cc(C(=O)NC[C@](O)(c3cc4c(c(-c5ccc6c(c5)OC(F)(F)O6)n3)OC[C@]4(C(N)=O)C(F)F)C3CC3)cc2c1` [Example 1020], the pEC50 was < 6.70 in experiment [1] (setting [3]) and < 6.30 in experiment [2] (setting [4]).
As to `C[C@]1(C(N)=O)COc2c1cc([C@@](O)(CNC(=O)c1cc(Cl)c3nn(C4CC4)cc3c1)C(F)(F)F)nc2-c1ccc2c(c1)OC(F)(F)O2` [Example 546], the pEC50 in experiment [1] (setting [5]) is > 6.70; in experiment [2] (setting [4]), > 6.30.
On the same counts, the results for `COc1cc(C(=O)NC[C@](O)(c2cc3c(c(-c4ccc(F)c(Cl)c4F)n2)OC[C@]3(C)C(N)=O)C2CC2)cc2cn(C3(F)CC3)nc12` [Example 555] are > 6.70 and > 6.30.
With `COc1cc(C(=O)NC[C@](O)(c2cc3c(c(-c4ccc(F)c(F)c4Cl)n2)OC[C@]3(C)C(N)=O)C2(F)CC2)cc2cc(Cl)c(C)nc12` [Example 747], the figures for the pEC50 in experiment [1] (setting [5]) and in experiment [2] (setting [4]) were > 6.70 and > 6.30, respectively.
For `COc1cc(C(=O)NC[C@](O)(c2cc3c(c(-c4ccc(F)cc4Cl)n2)OC[C@]3(C)C(N)=O)C2CC2)cc2cn(C3CC3)nc12` [Example 872], the values for the pEC50 in experiment [1] (setting [3]) and in experiment [2] (setting [4]) were > 6.70 and > 6.30, respectively.
